Reference: PubChem BioAssay AID2038 (NMMLSC, 2009)
Active and inactive are the calls of the source. The rule behind the calls is not given here.

target: GTPase HRas (Homo sapiens) (UniProt P01112); test: Ras wt fluorescent nucleotide binding blockade – biochemical, additional analogs, wildtype, multiplex flow cytometry, Ki, SAR follow-up (AID 2038); conditions: Multiplex bead flow cytometry, fluorescent GTP binding
Sequence (P01112 whole entry, looked up): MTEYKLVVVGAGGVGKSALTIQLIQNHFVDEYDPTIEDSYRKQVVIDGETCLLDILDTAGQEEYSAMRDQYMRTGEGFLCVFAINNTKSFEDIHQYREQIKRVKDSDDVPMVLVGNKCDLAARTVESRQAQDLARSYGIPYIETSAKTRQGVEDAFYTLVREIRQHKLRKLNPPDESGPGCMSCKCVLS

EC50 | Structure (SMILES)
> 30 µM (inactive) | O=C1C(c2c(O)[nH]c3c(F)cccc23)=Nc2ccccc21
> 30 µM (inactive) | COc1ccc2cc([C@H](C)C(=O)O)ccc2c1
> 30 µM (inactive) | O=C1C(c2c(O)[nH]c3ccccc23)=Nc2ccccc21
> 30 µM (inactive) | O=C1C(c2c(O)[nH]c3ccc(Br)cc23)=Nc2ccccc21
> 30 µM (inactive) | O=Nc1c(-c2c(O)[nH]c3ccc(Br)cc23)[nH]c2ccccc12
> 30 µM (inactive) | O=Nc1c(-c2c(O)[nH]c3c(F)cccc23)[nH]c2ccccc12

The next lines start with the molecule.

Structure (SMILES) | EC50
O=C1N=c2ccccc2=C1c1[nH]c(=S)[nH]c1O | > 30 µM (inactive)
O=C1N=c2ccccc2=C1c1[nH]c(=O)[nH]c1O | > 30 µM (inactive)
O=C1C(c2c(O)[nH]c3c(Br)cccc23)=Nc2ccccc21 | > 30 µM (inactive)
O=Nc1c(-c2c(O)[nH]c3c(Br)cccc23)[nH]c2ccccc12 | > 37.5 µM (inactive)
O=C1C(c2c(O)[nH]c3c(Cl)cccc23)=Nc2ccccc21 | > 30 µM (inactive)
O=Nc1c(-c2c(O)[nH]c3ccccc23)[nH]c2ccccc12 | > 30 µM (inactive)
O=Nc1c(-c2c(O)[nH]c3c(Cl)cccc23)[nH]c2ccccc12 | > 30 µM (inactive)

same assay, conditions: Multiplex bead flow cytometry, fluorescent GTP binding; measured here: Ki from EC50

Ki [µM] | Structure (SMILES)
0.49 | COc1ccc2cc([C@@H](C)C(=O)O)ccc2c1
4.84 | O=C(C#Cc1ccccc1)c1ccc(F)cc1
5.85 | O=Nc1c(-c2c(O)[nH]c3c(Br)cccc23)[nH]c2ccccc12
